Experimental data reported in patent publication US20110104821A1, “ABeta-OLIGOMER MEASUREMENT METHOD” (priority 2008, published 2011).

Biological target: high molecular oligomer Aβ (Aβ1-42) (Homo sapiens, UniProt P05067)
Assay: Influence of test compound on Aβ oligomer formation, measured by BAN50a / HRP-labeled BAN50a ELISA
Assay type: biochemical
Conditions: Curcumin with various concentrations added to Aβ42 solutions; incubated at 4° C. for a whole day and night; ELISA of Example 1
Method: ELISA using BAN50a and HRP labeled BAN50a (quantification of oligomer Aβ) was performed by the following steps.
(1) BAN50a antibody was dissolved in coating buffer A to a concentration of 10 μg/ml (75 μl/well), added to an EIA96 well plate (high maximum binding clear plate, Greiner), and incubated in a refrigerating room (about 4° C.) for a whole day and night. (2) After washing 3 times with PBS (calcium, magnesium-free; hereinafter sometimes to be abbreviated as PBS(−)), blocking buffer B was added to 100 μL/well and the plate was stored. (3) On the day of experiment, blocking buffer B was discarded and the plate was washed twice with PBS(−), and 25 μl of buffer C was added. […] (5) The sample was incubated in a refrigerating room (about 4° C.) for a whole day and night. (6) The plate was washed 4 times with PBS(−). […] (11) Thereafter, 1 M phosphoric acid solution (75 μl/well) was added to the reacted substrate solution to terminate the reaction, and OD450 was measured by a multi-label counter (PerkinElmer). […]
(3) The tube was incubated at 4° C. for a whole day and night. (4) The reaction mixture was diluted 100-fold with buffer C (mentioned above), and measured by the aforementioned ELISA. (5) The inhibitory rate was calculated with that of the vehicle group as 100%. […]

Chain of high molecular oligomer Aβ (Aβ1-42) (P05067 672-713): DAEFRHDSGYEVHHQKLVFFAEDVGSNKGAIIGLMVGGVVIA

COc1cc(/C=C/C(=O)CC(=O)/C=C/c2ccc(O)c(OC)c2)ccc1O [curcumin]
signal of oligomer Aβ (inhibition of formation of high molecular oligomer Aβ): specifically decreased
